Laboratory results from PMC9780888, “4-Isobutylmethcathinone—A Novel Synthetic Cathinone with High In Vitro Cytotoxicity and Strong Receptor Binding Preference of Enantiomers” (Pharmaceuticals, 2022).
Structures can show the parent of a compound that is named as a salt.

target: T1, dopamine receptor DAR4 (Homo sapiens, UniProt P21917); test: PRESTO-Tango β-arrestin 2 recruitment assay, DAR4; type: cell-based; conditions: DAR4, 0-500 nM
T1 construct: host or cells: HTLA (HEK 293-derived)
T1 sequence (P21917 1-419): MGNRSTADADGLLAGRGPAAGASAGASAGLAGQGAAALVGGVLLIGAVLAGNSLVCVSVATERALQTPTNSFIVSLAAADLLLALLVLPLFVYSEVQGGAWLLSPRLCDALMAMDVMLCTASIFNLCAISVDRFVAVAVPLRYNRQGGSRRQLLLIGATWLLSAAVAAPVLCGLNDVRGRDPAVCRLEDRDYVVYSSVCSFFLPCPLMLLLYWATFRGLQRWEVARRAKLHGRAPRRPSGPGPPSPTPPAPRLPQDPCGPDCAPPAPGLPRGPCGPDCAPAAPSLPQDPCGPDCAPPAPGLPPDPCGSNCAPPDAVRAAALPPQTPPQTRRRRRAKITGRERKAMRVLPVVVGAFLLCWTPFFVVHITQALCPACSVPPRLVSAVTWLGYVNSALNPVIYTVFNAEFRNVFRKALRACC
Text: However, binding to a specific receptor/transporter and, thus, the mechanism of action of a given cathinone always depends on the specific structure of the evaluated compound [37]. In this study, the binding activity of IBMcat and its enantiomers was verified by PRESTO-Tango (parallel receptor expression and screening via transcriptional output, with transcriptional activation following arrestin-2 translocation) assay using the HTLA cell line stably producing β-arrestin-2 in a fusion with TEV and luciferase production driven by tTA. For this purpose, the HTLA cells were transiently transfected with plasmid DNA encoding the dopamine receptors type 1-4 (DAR1-4), which also contain the TEV protease cleavage site followed by tTA at the 3’-end (DAR1-Tango, DAR2-Tango, DAR3-Tango, DAR4-Tango). In the case of the receptor activation by a ligand, in transfected cells, the receptor is desensitized by β-arrestin fused to TEV protease. This brings the TEV protease close to the site that specifically cleaves and, thus, the transcription factor can be cleaved. The transcription factor then translocates to the cell nucleus, in which it triggers the transcription of the target gene for luciferase production which can be determined by the light emitted from luciferin conversion to oxyluciferin. Here, the pronounced luminescence was recorded for all DAR1-4 types in HTLA cells treated with IBMCat and its enantiomers (Figure 8).
The HTLA cell line was used for the PRESTO-Tango β-arrestin recruitment assay. […]
The transfected HTLA cells were incubated for 24 h, and then 1 × 10^4 cells were seeded per well of a white 96-well clear bottom plate (Brand, Germany) in 40 μL of DMEM with 1% charcoal-stripped FBS (Thermo Fisher Scientific, USA). […] After 5 min., the luminescence was measured using a multi-mode microplate reader SpectraMax iD5 (Molecular Devices, San Jose, CA, USA) measuring the entire wavelength spectrum. All samples were measured in quadruplicates. The data were evaluated by Prism 7 software (GraphPad, San Jose, CA, USA).

SMILES | maximum increase in RLU compared to untreated control
CNC(C)C(=O)c1ccc(CC(C)C)cc1.Cl (stereo not drawn) [IBMcat, 4-isobutylmethcathinone hydrochloride] | 2 fold
CN[C@H](C)C(=O)c1ccc(CC(C)C)cc1 [R-IBMCat] | 1.5 fold
CN[C@@H](C)C(=O)c1ccc(CC(C)C)cc1 [S-IBMCat, (S)-4-isobutylmethcathinone hydrochloride] | 2 fold
